This passage reports relative viability results from the supplement of paper PMC10307832.

Assay in all cases: relative viability (nuclei count vs DMSO), 5 days (fraction); higher = more cells survive
Compound in assay [1]: C1CNCCC1C2=CC(=NN2)C3=CC=NC=C3 + O=C(c1cc(Cc2n[nH]c(=O)c3ccccc23)ccc1F)N1CCN(C(=O)C2CC2)CC1 [Olaparib] (partner 8 µM)
Summed up: (§1)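 Five library-drug doses in √10 steps were combined with a fixed anchor-drug dose, or a single drug was given alone, by pin tool to lung cancer cell lines in 1536-well plates the day after seeding. Nuclei were stained and counted after 5 days. Relative viability is the nuclei count in treated wells over that in vehicle wells, taken as the median of duplicate plates.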

Compound in assay [2]: C[C@@H](N)c1ccc(C(=O)Nc2ccnc3[nH]ccc23)cc1 + CS(=O)(=O)CCNCc1ccc(-c2ccc3ncnc(Nc4ccc(OCc5cccc(F)c5)c(Cl)c4)c3c2)o1 [Lapatinib] (partner 2 µM)
Put shortly:
as §1

Compound in assay [3]: C1CNCCC1C2=CC(=NN2)C3=CC=NC=C3 + Cc1nc(NC(=O)N2CCC[C@H]2C(N)=O)sc1-c1ccnc(C(C)(C)C(F)(F)F)c1 [Alpelisib] (partner 2 µM)
Summed up: as §1

Compound in assay [4]: C[C@@H](N)c1ccc(C(=O)Nc2ccnc3[nH]ccc23)cc1 + CC(=O)Nc1cccc(-n2c(=O)n(C3CC3)c(=O)c3c(Nc4ccc(I)cc4F)n(C)c(=O)c(C)c32)c1 [Trametinib] (partner 0.02 µM)
Summed up: as §1

For the cell line Calu-6, the relative viability in assay [1] (first compound 0.08 µM) came to 0.565; in assay [1] (first compound 0.8 µM), 0.6; in assay [1] (first compound 2.53 µM), 0.62; in assay [1] (first compound 8 µM), 0.497; in assay [2] (first compound 0.04 µM), 1.09; in assay [2] (first compound 0.1265 µM), 1.08. Besides, the relative viability in assay [2] (first compound 0.4 µM) amounted to 1.1; in assay [2] (first compound 1.265 µM), 0.902; in assay [2] (first compound 4 µM), 0.832; in assay [3] (first compound 0.08 µM) it was 0.896; in assay [3] (first compound 0.8 µM), 1.05; in assay [3] (first compound 2.53 µM), 1.03. Further, the relative viability in assay [3] (first compound 8 µM) came out at 1.04.
As for ChaGo-K-1, the relative viability in assay [1] (first compound 0.08 µM) was found to be 0.546; in assay [1] (first compound 0.8 µM), 0.426; in assay [1] (first compound 2.53 µM), 0.435; in assay [1] (first compound 8 µM), 0.362; in assay [4] (first compound 0.04 µM) it was 0.888; in assay [4] (first compound 0.1265 µM) it was 0.863. Also, the results for the relative viability in assay [4] (first compound 0.4 µM), in assay [4] (first compound 1.265 µM) and in assay [4] (first compound 4 µM) were 0.823, 0.894 and 0.789, respectively.
EBC-1: the relative viability was 0.778 in assay [1] (first compound 0.08 µM); 0.722 in assay [1] (first compound 0.8 µM); 0.804 in assay [1] (first compound 2.53 µM); 0.741 in assay [1] (first compound 8 µM); 0.265 in assay [2] (first compound 0.04 µM); 0.239 in assay [2] (first compound 0.1265 µM). Also, the relative viability turned out to be 0.219 in assay [2] (first compound 0.4 µM); 0.179 in assay [2] (first compound 1.265 µM); 0.171 in assay [2] (first compound 4 µM); 0.926 in assay [3] (first compound 0.08 µM); 0.704 in assay [3] (first compound 0.8 µM); 0.819 in assay [3] (first compound 2.53 µM). In assay [3] (first compound 8 µM), the relative viability stood at 0.857.
For the cell line EKVX, the relative viability stood at 0.882 in assay [1] (first compound 0.08 µM); 1.05 in assay [1] (first compound 2.53 µM); 0.755 in assay [1] (first compound 8 µM); 0.223 in assay [2] (first compound 0.04 µM); 0.224 in assay [2] (first compound 0.1265 µM); 0.242 in assay [2] (first compound 0.4 µM). In addition, the relative viability in assay [2] (first compound 1.265 µM) worked out at 0.224; in assay [2] (first compound 4 µM), 0.215; in assay [4] (first compound 0.04 µM) it was 0.482; in assay [4] (first compound 0.1265 µM), 0.446; in assay [4] (first compound 0.4 µM), 0.396; in assay [4] (first compound 1.265 µM), 0.556. For the same cell line, the relative viability in assay [4] (first compound 4 µM) was 0.22; in assay [3] (first compound 0.08 µM), 0.738; in assay [3] (first compound 0.8 µM), 0.573; in assay [3] (first compound 2.53 µM) it was 1.03; in assay [3] (first compound 8 µM), 0.818.
Regarding EMC-BAC-2, the relative viability in assay [1] (first compound 0.08 µM) is 0.346; in assay [1] (first compound 0.8 µM), 0.521; in assay [1] (first compound 2.53 µM), 0.476; in assay [1] (first compound 8 µM), 0.477; in assay [2] (first compound 0.04 µM), 0.86; in assay [2] (first compound 0.1265 µM), 0.896. In addition, the relative viability in assay [2] (first compound 0.4 µM) worked out at 0.898; in assay [2] (first compound 1.265 µM) it was 0.986; in assay [2] (first compound 4 µM), 0.897; in assay [4] (first compound 0.04 µM), 0.958; in assay [4] (first compound 0.1265 µM), 1.04; in assay [4] (first compound 0.4 µM), 1.03. For the same cell line, the relative viability in assay [4] (first compound 1.265 µM) was determined as 1.01; in assay [4] (first compound 4 µM), 0.969; in assay [3] (first compound 0.08 µM), 0.755; in assay [3] (first compound 0.8 µM) it was 0.659; in assay [3] (first compound 2.53 µM), 0.72; in assay [3] (first compound 8 µM), 0.758.
On to EPLC-272H, for which the relative viability stood at 0.973 in assay [1] (first compound 0.08 µM); 0.761 in assay [1] (first compound 0.8 µM); 0.935 in assay [1] (first compound 2.53 µM); 0.801 in assay [1] (first compound 8 µM); 1 in assay [2] (first compound 0.04 µM); 0.914 in assay [2] (first compound 0.1265 µM). Further, the relative viability in assay [2] (first compound 0.4 µM) turned out to be 1.1; in assay [2] (first compound 4 µM), 0.668; in assay [4] (first compound 0.04 µM), 0.299; in assay [4] (first compound 0.1265 µM), 0.283; in assay [4] (first compound 0.4 µM) it was 0.358; in assay [4] (first compound 4 µM), 0.267. The relative viability in assay [3] (first compound 0.08 µM) turned out to be 0.99; in assay [3] (first compound 0.8 µM), 0.774; in assay [3] (first compound 2.53 µM), 0.953; in assay [3] (first compound 8 µM) it was 0.983.
As to H3255, the relative viability in assay [1] (first compound 0.08 µM) is 0.562; in assay [1] (first compound 0.8 µM), 0.567; in assay [1] (first compound 2.53 µM), 0.601; in assay [1] (first compound 8 µM), 0.608; in assay [2] (first compound 0.04 µM), 0.306; in assay [2] (first compound 0.1265 µM) it was 0.304. In addition, the relative viability in assay [2] (first compound 0.4 µM) is 0.302; in assay [2] (first compound 1.265 µM), 0.334; in assay [2] (first compound 4 µM), 0.306; in assay [4] (first compound 0.04 µM), 0.704; in assay [4] (first compound 0.1265 µM) it was 0.694; in assay [4] (first compound 0.4 µM) it was 0.748. Moreover, the relative viability stood at 0.757 in assay [4] (first compound 1.265 µM); 0.583 in assay [4] (first compound 4 µM); 0.674 in assay [3] (first compound 0.08 µM); 0.646 in assay [3] (first compound 0.8 µM); 0.858 in assay [3] (first compound 2.53 µM); 0.734 in assay [3] (first compound 8 µM).
Turning to HARA, the relative viability came to 0.762 in assay [1] (first compound 0.08 µM); 1.27 in assay [1] (first compound 0.8 µM); 1.21 in assay [1] (first compound 2.53 µM); 1.11 in assay [1] (first compound 8 µM); 0.829 in assay [2] (first compound 0.04 µM); 0.904 in assay [2] (first compound 0.1265 µM). Moreover, the relative viability came to 0.79 in assay [2] (first compound 0.4 µM); 0.803 in assay [2] (first compound 1.265 µM); 0.702 in assay [2] (first compound 4 µM); 0.918 in assay [4] (first compound 0.04 µM); 1.01 in assay [4] (first compound 0.1265 µM); 0.804 in assay [4] (first compound 0.4 µM). Further, the relative viability is 0.549 in assay [4] (first compound 1.265 µM); 0.936 in assay [4] (first compound 4 µM); 0.821 in assay [3] (first compound 0.08 µM); 0.811 in assay [3] (first compound 0.8 µM); 0.898 in assay [3] (first compound 2.53 µM); 0.82 in assay [3] (first compound 8 µM).
On to HCC-15, for which the relative viability was 0.694 in assay [1] (first compound 0.08 µM); 0.789 in assay [1] (first compound 0.8 µM); 0.766 in assay [1] (first compound 2.53 µM); 0.588 in assay [1] (first compound 8 µM); 0.827 in assay [2] (first compound 0.04 µM); 0.789 in assay [2] (first compound 0.1265 µM). Also, the relative viability in assay [2] (first compound 0.4 µM) was 0.854; in assay [2] (first compound 4 µM), 0.785; in assay [4] (first compound 0.04 µM), 0.456; in assay [4] (first compound 0.1265 µM), 0.365; in assay [4] (first compound 0.4 µM), 0.422; in assay [4] (first compound 1.265 µM), 0.384. For the same cell line, the relative viability in assay [4] (first compound 4 µM) is 0.362; in assay [3] (first compound 0.08 µM), 0.856; in assay [3] (first compound 0.8 µM), 0.856; in assay [3] (first compound 2.53 µM), 0.898; in assay [3] (first compound 8 µM), 0.839.
